Test results as given in ChEMBL document CHEMBL5465560, “Selectivity Literature for EUbOPEN Chemogenomic Library” (2024).
Blank lines part the entries; values can stand above or below the molecule they belong to.

Columns and labels:
[1] = target: T1, Cytoplasmic tyrosine-protein kinase BMX (Homo sapiens) (UniProt P51813); assay: Selectivity interaction (Kinase panel (Z-LYTE Assay)) EUB0001632a BMX; settings: at 10 µM
T1 sequence (whole entry): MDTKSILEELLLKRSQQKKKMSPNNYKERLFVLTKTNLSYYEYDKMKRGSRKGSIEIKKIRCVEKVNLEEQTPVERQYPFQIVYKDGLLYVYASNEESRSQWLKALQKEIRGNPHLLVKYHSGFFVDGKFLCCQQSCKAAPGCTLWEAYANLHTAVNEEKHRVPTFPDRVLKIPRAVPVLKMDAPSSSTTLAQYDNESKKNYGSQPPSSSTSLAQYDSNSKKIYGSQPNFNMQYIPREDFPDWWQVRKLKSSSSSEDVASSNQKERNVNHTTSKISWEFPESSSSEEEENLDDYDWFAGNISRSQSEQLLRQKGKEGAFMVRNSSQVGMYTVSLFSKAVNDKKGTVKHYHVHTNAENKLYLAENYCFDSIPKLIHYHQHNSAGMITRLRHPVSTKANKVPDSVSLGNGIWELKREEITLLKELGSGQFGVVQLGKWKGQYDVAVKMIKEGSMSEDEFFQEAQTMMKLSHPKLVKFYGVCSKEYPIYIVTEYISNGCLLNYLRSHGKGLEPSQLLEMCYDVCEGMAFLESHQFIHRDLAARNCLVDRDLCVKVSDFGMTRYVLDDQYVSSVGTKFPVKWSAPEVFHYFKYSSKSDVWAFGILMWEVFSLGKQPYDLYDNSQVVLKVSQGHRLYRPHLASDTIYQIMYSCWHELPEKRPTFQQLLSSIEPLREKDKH

[2] = target: Ribosomal protein S6 kinase alpha-6 (Homo sapiens, UniProt Q9UK32); assay: Selectivity interaction (KinomeScan (DiscoverX)) EUB0000666a RPS6KA6; settings: at 10 µM
[3] = target: Serine/threonine-protein kinase PLK2 (Homo sapiens, UniProt Q9NYY3); assay: Selectivity interaction (Kinase panel (Invitrogen)) EUB0000639a PLK2; settings: at 200 nM
[4] = system: Tyrosine-protein kinase ABL1 (Homo sapiens), P00519 [Q252H]; assay: Selectivity interaction (KinomeScan (DiscoverX)) EUB0001079a ABL1; settings: at 1 µM
[5] = target: T2, Inhibitor of nuclear factor kappa-B kinase subunit alpha (Homo sapiens) (UniProt O15111); assay: Selectivity interaction (KinomeScan (DiscoverX)) EUB0001619a CHUK; settings: at 1 µM
T2 sequence (whole entry): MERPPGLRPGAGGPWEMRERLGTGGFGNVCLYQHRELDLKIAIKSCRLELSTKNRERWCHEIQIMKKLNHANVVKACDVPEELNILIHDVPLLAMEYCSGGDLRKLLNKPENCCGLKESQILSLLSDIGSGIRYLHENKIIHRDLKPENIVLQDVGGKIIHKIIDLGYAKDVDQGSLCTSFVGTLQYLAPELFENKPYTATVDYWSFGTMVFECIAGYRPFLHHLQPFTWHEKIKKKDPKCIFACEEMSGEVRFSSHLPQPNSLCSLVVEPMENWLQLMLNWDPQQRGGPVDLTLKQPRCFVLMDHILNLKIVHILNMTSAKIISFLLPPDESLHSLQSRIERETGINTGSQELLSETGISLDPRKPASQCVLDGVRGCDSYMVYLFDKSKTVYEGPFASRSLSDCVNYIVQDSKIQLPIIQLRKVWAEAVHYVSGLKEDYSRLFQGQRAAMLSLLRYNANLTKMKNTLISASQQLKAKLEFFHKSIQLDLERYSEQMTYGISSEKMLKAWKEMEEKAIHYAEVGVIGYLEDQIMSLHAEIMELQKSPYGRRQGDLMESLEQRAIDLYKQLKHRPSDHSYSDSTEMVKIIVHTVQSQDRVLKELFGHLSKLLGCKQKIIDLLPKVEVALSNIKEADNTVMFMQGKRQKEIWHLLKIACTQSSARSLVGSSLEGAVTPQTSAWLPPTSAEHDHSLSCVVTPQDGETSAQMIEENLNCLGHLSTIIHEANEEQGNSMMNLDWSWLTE

[6] = target: Dual specificity tyrosine-phosphorylation-regulated kinase 1B (Homo sapiens, UniProt Q9Y463); assay: Selectivity interaction (KinomeScan (DiscoverX)) EUB0001619a DYRK1B; settings: at 1 µM
[7] = system: Mast/stem cell growth factor receptor Kit (Homo sapiens), P10721 [A829P]; assay: (§1) Selectivity interaction (KinomeScan (DiscoverX)) EUB0001619a KIT; settings: at 1 µM
[8] = system: Mast/stem cell growth factor receptor Kit (Homo sapiens), P10721 [D816H]; assay: as §1; settings: at 1 µM
[9] = system: Mast/stem cell growth factor receptor Kit (Homo sapiens), P10721 [D816V]; assay: as §1; settings: at 1 µM
[10] = system: Mast/stem cell growth factor receptor Kit (Homo sapiens), P10721 [L576P]; assay: as §1; settings: at 1 µM
[11] = system: Mast/stem cell growth factor receptor Kit (Homo sapiens), P10721 [V559D,T670I]; assay: as §1; settings: at 1 µM
[12] = system: Mast/stem cell growth factor receptor Kit (Homo sapiens), P10721 [V559D,V654A]; assay: as §1; settings: at 1 µM
[13] = system: Mast/stem cell growth factor receptor Kit (Homo sapiens), P10721 [V559D]; assay: as §1; settings: at 1 µM
[14] = target: Mast/stem cell growth factor receptor Kit (Homo sapiens, UniProt P10721); assay: as §1; settings: at 1 µM
Chain of Mast/stem cell growth factor receptor Kit (P10721 whole entry): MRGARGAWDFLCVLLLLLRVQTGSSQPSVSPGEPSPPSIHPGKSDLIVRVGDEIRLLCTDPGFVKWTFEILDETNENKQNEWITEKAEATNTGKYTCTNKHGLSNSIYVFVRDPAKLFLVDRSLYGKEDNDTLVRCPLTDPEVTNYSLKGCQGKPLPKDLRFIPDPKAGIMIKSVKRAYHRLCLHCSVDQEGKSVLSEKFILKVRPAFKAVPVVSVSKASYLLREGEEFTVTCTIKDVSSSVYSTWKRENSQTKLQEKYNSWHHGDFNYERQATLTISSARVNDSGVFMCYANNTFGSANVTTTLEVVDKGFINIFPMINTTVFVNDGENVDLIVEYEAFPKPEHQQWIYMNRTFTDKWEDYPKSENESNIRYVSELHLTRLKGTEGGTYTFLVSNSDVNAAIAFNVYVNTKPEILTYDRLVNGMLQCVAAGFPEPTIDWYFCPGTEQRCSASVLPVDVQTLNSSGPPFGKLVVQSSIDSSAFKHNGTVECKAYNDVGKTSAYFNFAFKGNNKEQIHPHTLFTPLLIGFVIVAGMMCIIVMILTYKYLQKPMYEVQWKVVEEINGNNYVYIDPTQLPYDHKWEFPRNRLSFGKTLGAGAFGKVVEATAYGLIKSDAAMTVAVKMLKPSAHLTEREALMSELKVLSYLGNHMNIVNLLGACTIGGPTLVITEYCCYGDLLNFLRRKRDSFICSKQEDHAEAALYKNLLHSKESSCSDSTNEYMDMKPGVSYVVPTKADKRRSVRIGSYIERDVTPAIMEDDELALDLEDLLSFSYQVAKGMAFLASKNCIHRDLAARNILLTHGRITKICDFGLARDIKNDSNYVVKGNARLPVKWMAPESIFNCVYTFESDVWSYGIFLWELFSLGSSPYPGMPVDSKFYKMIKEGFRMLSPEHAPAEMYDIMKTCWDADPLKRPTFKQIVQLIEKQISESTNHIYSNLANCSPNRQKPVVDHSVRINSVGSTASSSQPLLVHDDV

Chain of Mast/stem cell growth factor receptor Kit (Homo sapiens), P10721 [V559D,T670I] (P10721 whole entry V559D/T670I): as the sequence (P10721 whole entry) above, with V559D, T670I counted along it
Chain of Mast/stem cell growth factor receptor Kit (Homo sapiens), P10721 [A829P] (P10721 whole entry A829P): as the sequence (P10721 whole entry) above, with A829P counted along it
Chain of Mast/stem cell growth factor receptor Kit (Homo sapiens), P10721 [V559D,V654A] (P10721 whole entry V559D/V654A): as the sequence (P10721 whole entry) above, with V559D, V654A counted along it
Chain of Ribosomal protein S6 kinase alpha-6 (Q9UK32 whole entry): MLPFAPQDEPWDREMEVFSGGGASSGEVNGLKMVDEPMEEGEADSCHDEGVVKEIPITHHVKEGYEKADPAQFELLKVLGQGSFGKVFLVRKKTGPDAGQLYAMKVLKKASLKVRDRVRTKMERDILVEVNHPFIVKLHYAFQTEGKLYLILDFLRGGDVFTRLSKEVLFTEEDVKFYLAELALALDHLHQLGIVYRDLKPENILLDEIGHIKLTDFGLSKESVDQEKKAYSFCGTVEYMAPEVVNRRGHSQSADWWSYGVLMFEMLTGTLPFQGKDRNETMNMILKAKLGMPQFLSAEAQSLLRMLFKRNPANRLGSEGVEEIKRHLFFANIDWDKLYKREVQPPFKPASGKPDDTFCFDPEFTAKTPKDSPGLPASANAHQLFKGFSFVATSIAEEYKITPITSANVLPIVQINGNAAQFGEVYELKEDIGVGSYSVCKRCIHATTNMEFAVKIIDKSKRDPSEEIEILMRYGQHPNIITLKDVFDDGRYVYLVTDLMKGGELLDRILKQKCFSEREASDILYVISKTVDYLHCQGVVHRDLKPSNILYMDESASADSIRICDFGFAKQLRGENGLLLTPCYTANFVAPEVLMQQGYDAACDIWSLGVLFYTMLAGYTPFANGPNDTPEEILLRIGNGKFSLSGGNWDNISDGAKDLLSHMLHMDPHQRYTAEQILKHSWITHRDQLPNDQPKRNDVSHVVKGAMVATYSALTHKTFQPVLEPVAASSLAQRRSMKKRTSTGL
Chain of Mast/stem cell growth factor receptor Kit (Homo sapiens), P10721 [V559D] (P10721 whole entry V559D): as the sequence (P10721 whole entry) above, with V559D counted along it
Chain of Serine/threonine-protein kinase PLK2 (Q9NYY3 whole entry, looked up): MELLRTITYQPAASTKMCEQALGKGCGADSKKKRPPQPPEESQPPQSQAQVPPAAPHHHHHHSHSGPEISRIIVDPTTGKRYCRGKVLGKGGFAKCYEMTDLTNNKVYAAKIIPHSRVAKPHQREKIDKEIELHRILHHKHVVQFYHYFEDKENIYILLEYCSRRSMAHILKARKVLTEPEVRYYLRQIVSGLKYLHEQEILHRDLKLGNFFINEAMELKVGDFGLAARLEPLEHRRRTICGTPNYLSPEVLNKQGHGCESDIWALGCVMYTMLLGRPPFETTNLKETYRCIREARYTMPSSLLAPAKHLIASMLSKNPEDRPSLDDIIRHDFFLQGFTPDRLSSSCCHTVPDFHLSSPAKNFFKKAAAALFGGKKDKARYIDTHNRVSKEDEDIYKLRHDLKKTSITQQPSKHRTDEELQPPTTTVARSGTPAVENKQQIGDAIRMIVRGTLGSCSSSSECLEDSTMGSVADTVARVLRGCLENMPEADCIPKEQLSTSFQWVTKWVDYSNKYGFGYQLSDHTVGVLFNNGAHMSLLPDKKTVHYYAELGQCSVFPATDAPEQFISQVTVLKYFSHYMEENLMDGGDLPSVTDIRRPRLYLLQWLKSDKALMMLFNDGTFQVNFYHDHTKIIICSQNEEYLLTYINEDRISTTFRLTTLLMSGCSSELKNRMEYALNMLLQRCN
Chain of Mast/stem cell growth factor receptor Kit (Homo sapiens), P10721 [L576P] (P10721 whole entry L576P): as the sequence (P10721 whole entry) above, with L576P counted along it
Chain of Dual specificity tyrosine-phosphorylation-regulated kinase 1B (Q9Y463 whole entry, looked up): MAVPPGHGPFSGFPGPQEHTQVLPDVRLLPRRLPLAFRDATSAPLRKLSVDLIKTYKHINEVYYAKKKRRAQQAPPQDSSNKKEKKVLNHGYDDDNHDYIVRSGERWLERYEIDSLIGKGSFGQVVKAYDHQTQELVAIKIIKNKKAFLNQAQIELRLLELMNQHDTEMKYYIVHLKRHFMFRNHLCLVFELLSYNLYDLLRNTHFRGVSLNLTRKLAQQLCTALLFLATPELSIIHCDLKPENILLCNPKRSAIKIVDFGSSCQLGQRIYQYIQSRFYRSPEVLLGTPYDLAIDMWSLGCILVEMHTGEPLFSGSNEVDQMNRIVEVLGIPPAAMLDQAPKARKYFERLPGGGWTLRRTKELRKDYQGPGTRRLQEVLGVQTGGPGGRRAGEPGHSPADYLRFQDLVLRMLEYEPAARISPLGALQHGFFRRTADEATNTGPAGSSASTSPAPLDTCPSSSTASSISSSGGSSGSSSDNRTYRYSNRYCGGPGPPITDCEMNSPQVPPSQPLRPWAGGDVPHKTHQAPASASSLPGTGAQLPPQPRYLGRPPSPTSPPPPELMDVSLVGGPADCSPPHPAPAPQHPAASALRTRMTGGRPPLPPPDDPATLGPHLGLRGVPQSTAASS
Chain of Mast/stem cell growth factor receptor Kit (Homo sapiens), P10721 [D816H] (P10721 whole entry D816H): as the sequence (P10721 whole entry) above, with D816H counted along it
Chain of Mast/stem cell growth factor receptor Kit (Homo sapiens), P10721 [D816V] (P10721 whole entry D816V): as the sequence (P10721 whole entry) above, with D816V counted along it

% of control [1]: 2.67%
SMILES: Cn1cc(-n2cnc3c(NCc4nc5cc(Cl)c(Cl)cc5[nH]4)nc(N4CCOCC4)nc32)cn1

SMILES: O=C(NOC[C@H](O)CO)c1ccc(F)c(F)c1Nc1ccc(I)cc1F
% of control [2]: 80%

% of inhibition [3]: 5.58%
SMILES: CC[C@@H]1[C@H](F)C(=O)N[C@@H]1COc1nccc2cc(C(N)=O)c(OC)cc12 [ZIMLOVISERTIB]

SMILES: Nc1cnc(N2CCc3cc(S(=O)(=O)Nc4c(F)cc(Cl)cc4F)cc(N4CCCC4=O)c32)nc1 [TP-020n]
% of control [4]: 98%

SMILES: N#Cc1cccc(-c2c[nH]c3ncnc(N4CCOCC4)c23)c1
% of control [5]: 71% | % of control [6]: 70% | % of control [7]: 50% | % of control [8]: 92% | % of control [9]: 99% | % of control [10]: 89% | % of control [11]: 100% | % of control [12]: 72% | % of control [13]: 100% | % of control [14]: 100%
